Experimental data from ChEMBL document CHEMBL1201861, “Genomics of Drug Sensitity in Cancer screening data, Wellcome Trust Sanger Institute”.
pIC50: −log10 of the molar value.

Assays:
Assay in all cases: cells
Settings in all cases: Homo sapiens
COLO-829 = format: functional, cell-based
Description: SANGER: Inhibition of human COLO-829 cell growth in a cell viability assay.

D-263MG = format: functional, cell-based
Description: SANGER: Inhibition of human D-263MG cell growth in a cell viability assay.

DJM-1 = format: functional, cell-based;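 note: growth inhibition of human DJM-1 cells, read out by a cell viability assay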
Description: SANGER: Inhibition of human DJM-1 cell growth in a cell viability assay.

EKVX = format: functional, cell-based;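 note: growth inhibition of human EKVX cells, read out with a cell viability assay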
Description: SANGER: Inhibition of human EKVX cell growth in a cell viability assay.

ES7 = format: functional, cell-based;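 note: growth inhibition of cultured human ES7 cells, read out as cell viability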
Description: SANGER: Inhibition of human ES7 cell growth in a cell viability assay.

EW-18 = format: functional, cell-based;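 note: growth inhibition of EW-18 cells, read out by a cell viability assay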
Description: SANGER: Inhibition of human EW-18 cell growth in a cell viability assay.

GCIY = format: functional, cell-based;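 note: growth inhibition of the human GCIY cell line, read out by a cell viability assay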
Description: SANGER: Inhibition of human GCIY cell growth in a cell viability assay.

GOTO = format: functional, cell-based;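 note: growth inhibition of GOTO cells, read out by a cell viability assay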
Description: SANGER: Inhibition of human GOTO cell growth in a cell viability assay.

HAL-01 = format: functional, cell-based;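 note: growth inhibition of human HAL-01 cells, read out with a cell viability assay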
Description: SANGER: Inhibition of human HAL-01 cell growth in a cell viability assay.

HCE-4 = format: functional, cell-based;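 note: cell viability assay measuring inhibition of growth in the human HCE-4 cell line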
Description: SANGER: Inhibition of human HCE-4 cell growth in a cell viability assay.

HT = format: functional, cell-based
Description: SANGER: Inhibition of human HT cell growth in a cell viability assay.

IST-MEL1 = format: functional, cell-based;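 note: growth inhibition of the cell line, read out with a cell viability assay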
Description: SANGER: Inhibition of human IST-MEL1 cell growth in a cell viability assay.

IST-SL1 = format: functional, cell-based;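 note: growth inhibition of human IST-SL1 cells, read out with a cell viability assay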
Description: SANGER: Inhibition of human IST-SL1 cell growth in a cell viability assay.

JVM-3 = format: functional, cell-based;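 note: growth inhibition of human JVM-3 cells, read out with a cell viability assay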
Description: SANGER: Inhibition of human JVM-3 cell growth in a cell viability assay.

K562 = format: functional, cell-based
Description: SANGER: Inhibition of human K-562 cell growth in a cell viability assay.

KG-1 = format: functional, cell-based;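 note: growth inhibition of KG-1 cells, read out by a cell viability assay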
Description: SANGER: Inhibition of human KG-1 cell growth in a cell viability assay.

KLE = format: functional, cell-based;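 note: growth inhibition of human KLE cells, read out with a cell viability assay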
Description: SANGER: Inhibition of human KLE cell growth in a cell viability assay.

KM-H2 = format: functional, cell-based;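 note: growth inhibition of KM-H2 cells, read out by a cell viability assay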
Description: SANGER: Inhibition of human KM-H2 cell growth in a cell viability assay.

KP-N-YS = format: functional, cell-based;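 note: cell viability assay measuring inhibition of cell line growth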
Description: SANGER: Inhibition of human KP-N-YS cell growth in a cell viability assay.

KS-1 = format: functional, cell-based;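 note: growth inhibition of KS-1 cells, read out with a cell viability assay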
Description: SANGER: Inhibition of human KS-1 cell growth in a cell viability assay.

KU812 cell line = format: functional, cell-based;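 note: growth inhibition of KU812 cells, read out with a cell viability assay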
Description: SANGER: Inhibition of human KU812 cell growth in a cell viability assay.

LB771-HNC = format: functional, cell-based;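 note: growth inhibition of LB771-HNC human cells, read out with a cell viability assay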
Description: SANGER: Inhibition of human LB771-HNC cell growth in a cell viability assay.

LB831-BLC = format: functional, cell-based;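 note: growth inhibition of LB831-BLC cells, read out with a cell viability assay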
Description: SANGER: Inhibition of human LB831-BLC cell growth in a cell viability assay.

LS-411N = format: functional, cell-based
LXF-289 cell line = format: functional, cell-based
Description: SANGER: Inhibition of human LXF-289 cell growth in a cell viability assay.

MHH-NB-11 = format: functional, cell-based;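 note: growth inhibition of human MHH-NB-11 cells, read out by a cell viability assay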
Description: SANGER: Inhibition of human MHH-NB-11 cell growth in a cell viability assay.

MMAC-SF = format: functional, cell-based;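 note: growth inhibition of human MMAC-SF cells, read out with a cell viability assay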
Description: SANGER: Inhibition of human MMAC-SF cell growth in a cell viability assay.

MOLT-16 = format: functional, cell-based;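 note: growth inhibition of human MOLT-16 cells, read out with a cell viability assay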
Description: SANGER: Inhibition of human MOLT-16 cell growth in a cell viability assay.

MS-1 = format: functional, cell-based;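 note: growth inhibition of MS-1 cells, read out by cell viability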
Description: SANGER: Inhibition of human MS-1 cell growth in a cell viability assay.

MZ2-MEL = format: functional, cell-based;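 note: growth inhibition of MZ2-MEL cells read out with a cell viability assay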
Description: SANGER: Inhibition of human MZ2-MEL cell growth in a cell viability assay.

NB6 = format: functional, cell-based
Description: SANGER: Inhibition of human NB6 cell growth in a cell viability assay.

NB69 = format: functional, cell-based;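 note: growth inhibition of NB69 cells, determined by a cell viability assay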
Description: SANGER: Inhibition of human NB69 cell growth in a cell viability assay.

NCI-H1092 = format: functional, cell-based;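 note: cell growth inhibition measured with a cell viability assay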
Description: SANGER: Inhibition of human NCI-H1092 cell growth in a cell viability assay.

NCI-H1155 = format: functional, cell-based;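 note: cell growth inhibition measured by a viability assay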
Description: SANGER: Inhibition of human NCI-H1155 cell growth in a cell viability assay.

NCI-H1838 = format: functional, cell-based;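 note: growth inhibition of NCI-H1838 cells, determined with a cell viability readout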
Description: SANGER: Inhibition of human NCI-H1838 cell growth in a cell viability assay.

NCI-H209 = format: functional, cell-based;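 note: growth inhibition of human NCI-H209 cells, measured by a cell viability assay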
Description: SANGER: Inhibition of human NCI-H209 cell growth in a cell viability assay.

NCI-H2126 = format: functional, cell-based;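 note: growth inhibition of the cancer cell line, determined with a cell viability readout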
Description: SANGER: Inhibition of human NCI-H2126 cell growth in a cell viability assay.

NCI-H23 = format: functional, cell-based;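 note: cell viability assay measuring growth inhibition of NCI-H23 cells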
Description: SANGER: Inhibition of human NCI-H23 cell growth in a cell viability assay.

NCI-H510A = format: functional, cell-based;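 note: growth inhibition of NCI-H510A cells, read out with a cell viability assay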
Description: SANGER: Inhibition of human NCI-H510A cell growth in a cell viability assay.

NCI-H526 = format: functional, cell-based;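 note: growth inhibition of the human NCI-H526 cell line, measured by a cell viability assay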
Description: SANGER: Inhibition of human NCI-H526 cell growth in a cell viability assay.

NH-12 = format: functional, cell-based;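 note: growth inhibition of NH-12 cells, read out with a cell viability assay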
Description: SANGER: Inhibition of human NH-12 cell growth in a cell viability assay.

NKM-1 = format: functional, cell-based;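 note: growth inhibition of NKM-1 cells, read out with a cell viability assay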
Description: SANGER: Inhibition of human NKM-1 cell growth in a cell viability assay.

NOS-1 = format: functional, cell-based;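 note: growth inhibition of the human NOS-1 cell line, read out with a cell viability assay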
Description: SANGER: Inhibition of human NOS-1 cell growth in a cell viability assay.

P30-OHK = format: functional, cell-based;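 note: growth inhibition of the P30-OHK cell line, read out with a cell viability assay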
Description: SANGER: Inhibition of human P30-OHK cell growth in a cell viability assay.

PSN1 = format: functional, cell-based;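 note: suppression of growth of human PSN1 cells, read out by a cell viability assay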
Description: SANGER: Inhibition of human PSN1 cell growth in a cell viability assay.

RCC10RGB = format: functional, cell-based;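 note: growth inhibition of human RCC10RGB cells, read out by a cell viability assay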
Description: SANGER: Inhibition of human RCC10RGB cell growth in a cell viability assay.

RPMI-8226 = format: functional, cell-based
Description: SANGER: Inhibition of human RPMI-8226 cell growth in a cell viability assay.

Ramos-2G6-4C10 = format: functional, cell-based;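 note: growth inhibition of the cell line, measured by a cell viability read-out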
Description: SANGER: Inhibition of human Ramos-2G6-4C10 cell growth in a cell viability assay.

SCC-15 = format: functional, cell-based;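 note: growth inhibition of SCC-15 cells, read out with a cell viability assay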
Description: SANGER: Inhibition of human SCC-15 cell growth in a cell viability assay.

SCH = format: functional, cell-based;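 note: growth inhibition of human SCH cells, read out in a cell viability assay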
Description: SANGER: Inhibition of human SCH cell growth in a cell viability assay.

SH-4 = format: functional, cell-based;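 note: growth inhibition of SH-4 cells, read out with a cell viability assay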
Description: SANGER: Inhibition of human SH-4 cell growth in a cell viability assay.

SK-MEL-2 = format: functional, cell-based;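 note: growth inhibition of human SK-MEL-2 cells measured with a cell viability assay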
Description: SANGER: Inhibition of human SK-MEL-2 cell growth in a cell viability assay.

SK-NEP-1 = format: functional, cell-based;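 note: growth inhibition of human SK-NEP-1 cells, read out by a cell viability assay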
Description: SANGER: Inhibition of human SK-NEP-1 cell growth in a cell viability assay.

SW684 = format: functional, cell-based;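 note: growth inhibition of human SW684 cells, measured by a cell viability assay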
Description: SANGER: Inhibition of human SW684 cell growth in a cell viability assay.

SW872 = format: functional, cell-based;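 note: growth inhibition of SW872 cells, read out by a viability assay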
Description: SANGER: Inhibition of human SW872 cell growth in a cell viability assay.

SW982 = format: functional, cell-based;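 note: growth inhibition of SW982 cells, read out with a cell viability assay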
Description: SANGER: Inhibition of human SW982 cell growth in a cell viability assay.

TE-1 = format: functional, cell-based;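 note: growth inhibition of the human TE-1 cell line, read out with a cell viability assay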
Description: SANGER: Inhibition of human TE-1 cell growth in a cell viability assay.

697 = format: functional, cell-based
Description: SANGER: Inhibition of human 697 cell growth in a cell viability assay.

8-MG-BA = format: functional, cell-based;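 note: growth inhibition of 8-MG-BA cells, read out with a cell viability assay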
Description: SANGER: Inhibition of human 8-MG-BA cell growth in a cell viability assay.

ACN = format: functional, cell-based
Description: SANGER: Inhibition of human ACN cell growth in a cell viability assay.

BB65-RCC = format: functional, cell-based
Description: SANGER: Inhibition of human BB65-RCC cell growth in a cell viability assay.

BE-13 = format: functional, cell-based
Description: SANGER: Inhibition of human BE-13 cell growth in a cell viability assay.

BV-173 = format: functional, cell-based
Description: SANGER: Inhibition of human BV-173 cell growth in a cell viability assay.

TE-5 = format: functional, cell-based
Description: SANGER: Inhibition of human TE-5 cell growth in a cell viability assay.

U-87 MG = format: functional, cell-based, U-87MG ATCC
Description: SANGER: Inhibition of human U-87-MG cell growth in a cell viability assay.

COLO-684 = format: functional, cell-based
Description: SANGER: Inhibition of human COLO-684 cell growth in a cell viability assay.

Compound: CCNC(=O)c1noc(-c2cc(C(C)C)c(O)cc2O)c1-c1ccc(CN2CCOCC2)cc1 [LUMINESPIB]
- pIC50 (COLO-829): < 6.59
- pIC50 (D-263MG): 7.25
- pIC50 (DJM-1): 7.37
- pIC50 (EKVX): 6.98
- pIC50 (ES7): 7.47
- pIC50 (EW-18): 6.97
- pIC50 (GCIY): 7.69
- pIC50 (GOTO): 6.76
- pIC50 (HAL-01): < 6.59
- pIC50 (HCE-4): 7.67
- pIC50 (HT): 6.65
- pIC50 (IST-MEL1): 8.07
- pIC50 (IST-SL1): < 6.59
- pIC50 (JVM-3): < 6.59
- pIC50 (K562): 7.27
- pIC50 (KG-1): < 6.59
- pIC50 (KLE): 6.79
- pIC50 (KM-H2): 7.14
- pIC50 (KP-N-YS): 7.08
- pIC50 (KS-1): 8.07
- pIC50 (KU812 cell line): 7.43
- pIC50 (LB771-HNC): < 6.59
- pIC50 (LB831-BLC): 7.49
- pIC50 (LS-411N): 7.43
- pIC50 (LXF-289 cell line): 7.57
- pIC50 (MHH-NB-11): 6.60
- pIC50 (MMAC-SF): 7.37
- pIC50 (MOLT-16): 7.75
- pIC50 (MS-1): 6.73
- pIC50 (MZ2-MEL): 7.50
- pIC50 (NB6): < 6.59
- pIC50 (NB69): 7.96
- pIC50 (NCI-H1092): 6.85
- pIC50 (NCI-H1155): < 6.59
- pIC50 (NCI-H1838): < 6.59
- pIC50 (NCI-H209): < 6.59
- pIC50 (NCI-H2126): < 6.59
- pIC50 (NCI-H23): 6.62
- pIC50 (NCI-H510A): < 6.59
- pIC50 (NCI-H526): 6.73
- pIC50 (NH-12): 7.35
- pIC50 (NKM-1): 8.26
- pIC50 (NOS-1): 7.80
- pIC50 (P30-OHK): < 6.59
- pIC50 (PSN1): 8.50
- pIC50 (RCC10RGB): < 6.59
- pIC50 (RPMI-8226): 6.93
- pIC50 (Ramos-2G6-4C10): 7.12
- pIC50 (SCC-15): 7.55
- pIC50 (SCH): < 6.59
- pIC50 (SH-4): 7.38
- pIC50 (SK-MEL-2): 6.90
- pIC50 (SK-NEP-1): 6.80
- pIC50 (SW684): < 6.59
- pIC50 (SW872): 7.49
- pIC50 (SW982): 7.89
- pIC50 (TE-1): 7.80
- pIC50 697: 7.69
- pIC50 (8-MG-BA): 7.72
- pIC50 (ACN): 7.78
- pIC50 (BB65-RCC): 7.92
- pIC50 (BE-13): < 6.59
- pIC50 (BV-173): 7.47
- pIC50 (TE-5): < 6.59
- pIC50 (U-87 MG): 7.48
- pIC50 (COLO-684): 7.09
